The target in one assay is human SSTR-2 (Homo sapiens, UniProt P30874). Put plainly: Human SSTR-2 binding assay (transfected CHO-K1 cells).
Another assay has as its target T1, rat SSTR-2 (Rattus norvegicus, UniProt P30680).
T1 construct: Crude membranes were prepared by homogenizing AR42J cells; host or cells: AR42J rat pancreatic acinar tumor cells
Put plainly: Rat SSTR-2 binding assay ([125I-Tyr]MK-678, AR42J cell membranes). As for the experimental part: Crude membranes were prepared by homogenizing AR42J cells (ATCC, Rockville, Md.; ATCC No. CRL1992) in 20 ml of ice-cold 50 mM Tris-HCl (Buffer A) with a POLYTRON homogenizer (Brinkmann Instruments, Westbury, N.Y.) at setting 6, for 15 sec. Additional Buffer A was added to obtain a final volume of 40 ml, and the homogenate was centrifuged in a Sorval SS-34 rotor (DuPont, Newtown, Conn.) at 39,000 g for 10 min at 0-4° C. The resulting supernatant was decanted and discarded. The pellet was rehomogenized in ice-cold Buffer A, diluted, and centrifuged as before. The final pellet was resuspended in the 10 mM Tris HCl and held on ice for the receptor binding assay.
Aliquots of the membrane preparation were incubated for 90 min at 25° C. with 0.05 nM [^125I-Tyr]MK-678 (2000 Ci/mmol) in 50 mM HEPES (pH 7.4) containing a test peptide of various concentrations (e.g., 10^−11 to 10^−6 M), 10 mg/ml bovine serum albumin (fraction V) (Sigma Chemical Co., St. Louis, Mo.), MgCl2 (5 mM), Trasylol (200 KIU/ml), bacitracin (0.02 mg/ml), and phenylmethyl-sulphonyl fluoride (0.02 mg/ml). The final assay volume was 0.3 ml. The incubations were terminated by rapid filtration through GF/C filters (pre-soaked in 0.3% polyethylenimine for 30 min) using a filtration manifold (Brandel, Gaithersburg, Md.).

The next assay deals with T2, human SSTR-5 (Homo sapiens, UniProt P35346).
T2 construct: expressed in transfected cells
Nature of the assay: Human SSTR-5 binding assay (transfected CHO-K1 cells). The settings on record: for SSTR-2/SSTR-5 (ratio of Ki's): human SSTR-2 Ki / human SSTR-5 Ki. The source says:
The human SSTR-5 cDNA clone has been described in the literature. See Panetta, et al., Mol Pharmacol., 45:417-427 (1994); O'Carroll, et al., Mol Pharmacol, 46:291-298 (1994); Yamada, et al., Biochem. Biophys. Res. Commun., 195:844 (1993) [FIG. 1 depicts the DNA sequence of the human SSTR-5.] Using a sense 5′-oligonucleotide primer, immediately preceeding the start codon (residue 30-50), and an antisense 3′-oligonucleotide primer, immediately preceeding the stop codon (residues 1180-1200), a 1170 base pair fragment comprising the full-length coding sequence of the receptor was obtained by standard Reverse-transcription PCR. See Yamada, et al., Biochem. Biophys. Res. Commun., 195:844 (1993) [FIG. 1 depicts the DNA sequence of the human SSTR-5]; Innis, et al., PCR Protocols, A Guide to Methods and Applications, Academic Press, 1990. The identity of the cDNA fragment was verified by DNA sequencing using the dideoxy-chain termination method [Sanger, et al., Proc Natl Acad Sci USA., 74:5463 (1977)] with the Sequenase kit (United States Biochemicals, Arlington Heights, Ill.).
The human SSTR-5 cDNA fragment was inserted into a mammalian expression vector, pCMV to generate the expression plasmid pCMV-human SSTR-5 by blunt-end ligation.
Membranes from the stably transfected cell line were used in the rat SSTR-5 binding protocol described above.

For assay [1], the system named is rat SSTR-5. Put plainly: Rat SSTR-5 binding assay ([125I-Tyr11]somatostatin-14, rat olfactory bulb membranes). The conditions noted are these: rat SSTR-2 Ki / rat SSTR-5 Ki. As for the experimental part:
(§1) Crude membranes were prepared by homogenization of rat olfactory bulb cells (Zivic-Miller Laboratory, Inc., Zellenople, Pa.) in 20 ml of ice-cold 50 mM Tris-HCl with a POLYTRON homogenizer (setting 6, 15 sec). Buffer was added to obtain a final volume of 40 ml, and the homogenate was centrifuged in a Sorval SS-34 rotor at 39,000 g for 10 min at 0-4° C. The resulting supernatant was decanted and discarded. The pellet was rehomogenized in ice-cold buffer, diluted, and centrifuged as before. The final pellet was resuspended in the 10 mM Tris HCl and held on ice for the receptor binding assay.
(§2) The final assay volume was 0.3 ml. The incubations were terminated by rapid filtration through GF/C filters (pre-soaked in 0.3% polyethylenimine for 30 min) using a Brandel filtration manifold. Each tube and filter were then washed three times with 5 ml aliquots of ice-cold buffer.

The target in assay [2] is T3, rat SSTR-5 (Rattus norvegicus, UniProt P30938).
T3 construct: Crude membranes were prepared by homogenization of rat olfactory bulb cells; tissue Zivic-Miller Laboratory, Inc; host or cells: rat olfactory bulb
T3 sequence (P30938 1-363): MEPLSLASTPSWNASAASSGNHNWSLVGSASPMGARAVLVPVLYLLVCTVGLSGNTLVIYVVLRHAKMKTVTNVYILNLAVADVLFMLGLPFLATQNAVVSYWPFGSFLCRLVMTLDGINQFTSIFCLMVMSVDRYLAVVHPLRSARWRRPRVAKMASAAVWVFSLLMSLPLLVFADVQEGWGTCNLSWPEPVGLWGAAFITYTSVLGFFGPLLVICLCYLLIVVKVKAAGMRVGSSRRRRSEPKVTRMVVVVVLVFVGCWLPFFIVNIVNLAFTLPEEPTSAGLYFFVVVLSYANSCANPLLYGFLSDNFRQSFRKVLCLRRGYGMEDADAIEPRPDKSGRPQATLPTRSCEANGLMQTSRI
The description is as above. How it is done:
as §1, §2

The subject of another assay is rat Pancreas cells. Put plainly: Amylin release inhibition assay using rat pancreas cells (isolated perfused pancreas). It counts as cell-based. The conditions noted are these: 16.7 mM glucose, 10 nM test compound.
Where [3] appears, read: rat, AR42J cell membranes, radioligand [125I-Tyr]MK-678 0.05 nM, read-out: Ki SSTR-2.

pKi: −log10 of the molar value. Where two headings read alike, the source gives them in different places. Non-standard residues stand in square brackets, D forms with d. Residues, ends and D or L forms follow the SMILES beside them. *: point of attachment. X1 = O=C(CN1CCN(CCO)CC1)*

Usually pKi stands for the negative decadic logarithm of the Ki, by convention in mol/L.

T1 sequence (P30680 whole entry): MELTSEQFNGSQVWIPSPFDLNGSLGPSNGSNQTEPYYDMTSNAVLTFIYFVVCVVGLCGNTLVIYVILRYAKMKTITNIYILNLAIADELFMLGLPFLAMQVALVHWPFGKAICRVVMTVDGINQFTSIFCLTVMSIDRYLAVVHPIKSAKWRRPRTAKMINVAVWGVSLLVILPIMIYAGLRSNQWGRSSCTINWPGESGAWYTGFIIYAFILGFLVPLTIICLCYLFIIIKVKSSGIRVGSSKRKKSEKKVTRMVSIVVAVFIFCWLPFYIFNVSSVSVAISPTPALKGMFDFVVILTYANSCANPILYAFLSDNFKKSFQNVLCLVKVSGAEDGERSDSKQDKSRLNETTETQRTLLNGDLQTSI
T2 sequence (P35346 whole entry): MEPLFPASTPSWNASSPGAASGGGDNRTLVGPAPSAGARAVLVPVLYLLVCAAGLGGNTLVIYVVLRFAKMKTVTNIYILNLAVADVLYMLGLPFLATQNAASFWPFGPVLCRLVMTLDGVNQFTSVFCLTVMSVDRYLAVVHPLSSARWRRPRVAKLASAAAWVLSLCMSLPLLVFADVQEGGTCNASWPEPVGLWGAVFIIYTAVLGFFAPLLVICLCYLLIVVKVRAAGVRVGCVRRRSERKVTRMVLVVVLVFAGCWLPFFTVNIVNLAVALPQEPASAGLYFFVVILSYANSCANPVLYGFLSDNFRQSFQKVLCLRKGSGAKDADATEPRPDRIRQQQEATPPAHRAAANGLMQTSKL
Chain of human SSTR-2 (P30874 whole entry): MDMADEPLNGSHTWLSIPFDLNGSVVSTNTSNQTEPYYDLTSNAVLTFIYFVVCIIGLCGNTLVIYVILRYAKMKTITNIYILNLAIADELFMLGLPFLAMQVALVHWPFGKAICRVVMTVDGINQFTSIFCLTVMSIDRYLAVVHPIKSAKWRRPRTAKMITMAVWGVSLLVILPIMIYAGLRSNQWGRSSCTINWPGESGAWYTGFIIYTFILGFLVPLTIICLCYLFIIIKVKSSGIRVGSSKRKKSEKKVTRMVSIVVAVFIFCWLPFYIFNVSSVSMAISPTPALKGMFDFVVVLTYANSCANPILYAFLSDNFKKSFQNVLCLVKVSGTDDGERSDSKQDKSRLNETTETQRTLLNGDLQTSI
Procedure for human SSTR-2: CHO-K1 (ovary, Chinese hamster) cells were obtained from the American Type Culture Collection, Rockville, Md. […] The cells were grown and maintained in Ham's F12 media (Gibco BRL, Grand Island, N.Y.) supplemented with 10% fetal bovine serum under standard tissue culture conditions.
For transfection, the cells were seeded at a density 1×10^6/60 cm^2 plate (Baxter Scientific Products, McGaw Park, Ill.). DNA mediated transfection was carried out using the calcium phosphate co-precipitation method (Ausubel, et al., Current Protocols in Molecular Biology, John Wiley & Sons, 1987). The plasmid pRSV-neo (ATCC; ATCC No. 37198) was included as a selectable marker at 1/10 the concentration of the expression plasmid. CHO-K1 clonal cell lines that have stably inherited the transfected DNA were selected for growth in Ham's F12 media containing 10% fetal bovine serum and 0.5 mg/ml of G418 (Sigma Chemical Co., St. Louis, Mo.). The cells were ring-cloned and expanded in the same media for analysis.
Procedure for rat Pancreas cells: Sprague-Dawley rats (male, 200-300 g) (Harlan-Olac, Bicester, Oxon, UK) were anaesthetized with sodium pentobarbitone (60 mg/kg). […] The pancreases were perfused, as described in Dunmore, et al., J. Endocrinol., 1993, 137, 375-381, with modified Krebs-Ringer bicarbonate buffer containing 3% dextran T40 (Pharmacia, Milton Keynes, Bucks, UK) and 1% high purity bovine serum albumin (Sigma, Poole, Dorset, UK). After an initial 15-min period to allow for stabilization, the isolated pancreases were perfused at sequential 10 min. intervals, at a rate of 4.5-5.0 ml/min, with the following buffer compositions: 1) Buffer 1: Krebs-Ringer bicarbonate buffer containing 5.6 mM glucose (to examine baseline amylin secretion); 2) Buffer 2: Krebs-Ringer bicarbonate buffer containing 16.7 mM glucose (to examine high glucose stimulated secretion); 3) Buffer 3: Krebs-Ringer bicarbonate buffer containing 16.7 mM glucose in the presence of 10 nM of test compound (to examine the activity of test compounds on high glucose stimulated amylin secretion); and 4) Buffer 2: Krebs-Ringer bicarbonate buffer containing 16.7 mM glucose (to re-examine high glucose stimulated amylin secretion in order to assess the reversibility of the activity of the test compounds).
Fractions of the perfusate were collected on ice every minute in the presence of 400 KIU/ml aprotinin (Bayer, Hayward's Heath, W. Sussex, UK). Fractions were stored at −20° C. until assay. Perfusates collected were divided into 3×1.5 ml aliquots and assayed for amylin by radioimmunoassay as described in Dunmore, et al., J. Endocrinol., 1993, 137:375. Amylin was assayed using reagents supplied by Peninsula Laboratories Ltd. (St. Helens, Merseyside, UK). These reagents include ^125I-labelled amylin, rabbit anti-rat amylin antibody, and rat amylin. Bound amylin was precipitated using goat anti-rabbit second antibody—coupled cellulose (Sac-Cal, IDS, Boldon, Tyneawear, UK).

In the case of `C[C@@H](O)[C@H](NC(=O)[C@H](Cc1ccccc1)NC(=O)[C@@H](NC(=O)[C@H](CCCCN)NC(=O)[C@@H](Cc1c[nH]c2ccccc12)NC(=O)[C@H](Cc1ccccc1)NC(=O)[C@H](Cc1ccccc1)NC(=O)[C@H](N)Cc1ccccc1)[C@@H](C)O)C(=O)O` [Analog I, H-D-Phe-Phe-Phe-D-Trp-Lys-Thr-Phe-Thr-OH] (H-[dF]FF[dW]KTFT-OH), the pKi on human SSTR-2 is 7.85; at rat SSTR-2 (setting [3]), 7.43; on human SSTR-5 it was 7.91; at rat SSTR-5 [2] (read-out: Ki SSTR-5), 8.45. Also, the “SSTR-2/SSTR-5 (ratio of Ki's)” value at human SSTR-5 is 1.14; with rat SSTR-5 [1], 10.4.

For the compound `C[C@@H](O)[C@H](NC(=O)[C@H](Cc1ccccc1)NC(=O)[C@@H](NC(=O)[C@H](CCCCN)NC(=O)[C@@H](Cc1c[nH]c2ccccc12)NC(=O)[C@H](Cc1ccccc1)NC(=O)[C@H](Cc1ccccc1)NC(=O)[C@@H](Cc1ccccc1)NC(=O)CN1CCN(CCO)CC1)[C@@H](C)O)C(N)=O` [Analog II] (X1-[dF]FF[dW]KTFT-NH2), the negative logarithm of the Ki (pKi) on human SSTR-2 is 8.38; on rat SSTR-2 (setting [3]), 6.52; on human SSTR-5 (human receptor in CHO-K1 cells, LC 0.05 nM, LEC 0.18 nM, read-out: Ki SSTR-5), 8.89; at rat SSTR-5 [2] (read-out: Ki SSTR-5), 8.27.

As to `C[C@@H](O)[C@@H]1NC(=O)[C@H](CCCCN)NC(=O)[C@@H](Cc2c[nH]c3ccccc23)NC(=O)[C@H](Cc2ccccc2)NC(=O)[C@@H](NC(=O)[C@H](N)Cc2ccccc2)CSSC[C@@H](C(=O)N[C@H](CO)[C@@H](C)O)NC1=O` [SMS 201-995, H-D-Phe-Cys-Phe-D-Trp-Lys-Thr-Cys-Threoninol, reference compound], the pKi on rat SSTR-5 [2] is 8.04.

`CC(C)[C@@H]1NC(=O)[C@H](CCCCN)NC(=O)[C@@H](Cc2c[nH]c3ccccc23)NC(=O)[C@H](Cc2ccc(O)cc2)NC(=O)[C@@H](NC(=O)[C@H](N)Cc2ccc3ccccc3c2)CSSC[C@@H](C(=O)N[C@H](C(N)=O)[C@@H](C)O)NC1=O` [BIM-23014, H-D-P-Nal-Cys-Tyr-D-Trp-Lys-Val-Cys-Ser-NH2, reference compound]: the pKi on human SSTR-2 was 8.96; on rat SSTR-2, 9.47; on rat SSTR-5 [2] it was 7.19. Further, the “effect on glucose-induced amylin secretion (in words)” value in the assay with rat Pancreas cells was “no effect”.

For the compound Somatostatin-14 [reference compound], in the assay on rat Pancreas cells, the “effect on glucose-induced amylin secretion (in words)” value was “inhibited glucose-induced amylin secretion”. In addition, the “SSTR-2/SSTR-5 (ratio of Ki's)” value at human SSTR-5 was determined as 0.20; with rat SSTR-5 [1], 0.34.

On to `C[C@@H](O)[C@H](NC(=O)[C@H](Cc1ccccc1)NC(=O)[C@@H](NC(=O)[C@H](CCCCN)NC(=O)[C@@H](Cc1c[nH]c2ccccc12)NC(=O)[C@H](Cc1ccccc1)NC(=O)[C@H](Cc1ccccc1)NC(=O)[C@H](N)Cc1ccccc1)[C@@H](C)O)C(N)=O` [BIM-23052, H-D-Phe-Phe-Phe-D-Trp-Lys-Thr-Phe-Thr-NH2] (H-[dF]FF[dW]KTFT-NH2), for which the pKi is 7.85 on human SSTR-2, 8.09 at rat SSTR-2 and 8.50 at rat SSTR-5 [2] (read-out: Ki SSTR-5). Further, the “decrease in glucose stimulated amylin secretion” value in the assay with rat Pancreas cells was found to be 78%. Moreover, the “SSTR-2/SSTR-5 (ratio of Ki's)” value turned out to be 11.5 on human SSTR-5 and 2.54 with rat SSTR-5 [1].
